Laboratory results: patent US20240366612A1, “COMPOUNDS AND METHODS FOR MODULATING NUCLEIC ACID SPLICING” (REMIX THERAPEUTICS INC., priority 2021, published 2024)
Counter-ions that a name gives are not always drawn.

Key:
HTT mRNA = assay: Splicing RT-qPCR assay, HTT canonical (CJ) and alternative (AJ) junction mRNA; assay type: cell-based; conditions: Homo sapiens, A673 or K562 cells, 24 hours treatment; for IC50: decrease in CJ mRNA; for AC50: increase in AJ mRNA
How it was run: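 Compound-treated A673 or K562 cells (11-point 3-fold dilution, top dose 10 uM final, DMSO ≤0.25%) were incubated for 24 h at 37° C. Lysates underwent one-step RT-qPCR for canonical and alternative-exon junction isoforms. Normalization used PPIA for A673 and GAPDH or GUSB for K562.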

[1] = test system: HiBiT-tagged Target C protein in K562 cells; assay: HiBiT protein abundance assay, Target C; assay type: cell-based, human; conditions: HiBiT-modified K562 cells, 24 hours, luminescence
How it was run: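 K562 lines with the endogenous target HiBiT-tagged, seeded in IMDM+1% FBS, got a 10-point 3-fold dilution series (top final 10 μM, DMSO ≤0.25%) for 24 hours at 37° C. Lytic LgBiT luminescence was normalized against unmodified-K562 and DMSO-only controls, and IC50 was interpolated at 50% from a four-parameter logistic fit.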

## Cc1cc(-c2cc3ncn(C4CCNCC4)c(=O)c3s2)cc2cn(C)nc12 [Compound 236, 6-(2,7-dimethyl-2H-indazol-5-yl)-3-(piperidin-4-yl)thieno[3,2-d]pyrimidin-4(3H)-one]
HTT mRNA
  IC50: < 100 nM
  AC50: 100 to 1000 nM
[1]
  IC50: 100 to 1000 nM

## Cc1cc(-c2cc3ncn(C4CCN(C)CC4)c(=O)c3s2)cc2cn(C)nc12 [Compound 237, 6-(2,7-dimethyl-2H-indazol-5-yl)-3-(1-methylpiperidin-4-yl)thieno[3,2-d]pyrimidin-4(3H)-one]
HTT mRNA
  IC50: 100 to 1000 nM
  AC50: 100 to 1000 nM
[1]
  IC50: 100 to 1000 nM

## Cc1cn2nc(-c3cc4ncn(C5CCNCC5)c(=O)c4s3)cc(C)c2n1 [Compound 238, 6-(2,8-dimethylimidazo[1,2-b]pyridazin-6-yl)-3-(piperidin-4-yl)thieno[3,2-d]pyrimidin-4(3H)-one]
HTT mRNA
  IC50: 100 to 1000 nM
  AC50: 100 to 1000 nM
[1]
  IC50: 1000 to 10000 nM

## Cc1cn2nc(-c3cc4ncn(C5CCN(C)CC5)c(=O)c4s3)cc(C)c2n1 [Compound 239, 6-(2,8-dimethylimidazo[1,2-b]pyridazin-6-yl)-3-(1-methylpiperidin-4-yl)thieno[3,2-d]pyrimidin-4(3H)-one]
HTT mRNA
  IC50: 1000 to 10000 nM
  AC50: 1000 to 10000 nM
[1]
  IC50: > 10000 nM

## Cc1cn2cc(-c3nc4sc(C5CCNCC5)cc4c(=O)[nH]3)cc(F)c2n1 [Compound 250, 2-(8-fluoro-2-methylimidazo[1,2-a]pyridin-6-yl)-6-(piperidin-4-yl)thieno[2,3-d]pyrimidin-4(3H)-one]
HTT mRNA
  IC50: 100 to 1000 nM
  AC50: 100 to 1000 nM
[1]
  IC50: 100 to 1000 nM

## Cc1nc(-c2nc3ncn(C4CCNCC4)c(=O)c3s2)cc2cn(C)nc12 [Compound 251, 2-(2,7-dimethyl-2H-pyrazolo[3,4-c]pyridin-5-yl)-6-(piperidin-4-yl)thiazolo[4,5-d]pyrimidin-7(6H)-one]
HTT mRNA
  IC50: 1000 to 10000 nM
  AC50: 1000 to 10000 nM
[1]
  IC50: > 10000 nM

## Cn1cc2cc(-c3nc4ncn(C5CCNCC5)c(=O)c4s3)c(O)cc2n1 [Compound 253, 2-(6-hydroxy-2-methyl-2H-indazol-5-yl)-6-(piperidin-4-yl)thiazolo[4,5-d]pyrimidin-7(6H)-one, hydrochloride]
HTT mRNA
  IC50: 1000 to 10000 nM
  AC50: 1000 to 10000 nM
[1]
  IC50: 1000 to 10000 nM

## Cc1cn2cc(-c3nc4sc(C5CCN(C)CC5)cc4c(=O)[nH]3)cc(F)c2n1 [Compound 256, 2-(8-fluoro-2-methylimidazo[1,2-a]pyridin-6-yl)-6-(1-methylpiperidin-4-yl)thieno[2,3-d]pyrimidin-4(3H)-one]
HTT mRNA
  IC50: > 10000 nM
  AC50: > 10000 nM
[1]
  IC50: > 10000 nM

## Cn1cc2cc(-c3cc4ncn(C5CCNCC5)c(=O)c4s3)cc(F)c2n1 [Compound 257]
HTT mRNA
  IC50: 1000 to 10000 nM
  AC50: 1000 to 10000 nM
[1]
  IC50: 1000 to 10000 nM

## Cn1cc2cc(-c3cc4ncn(C5CCNCC5)c(=O)c4s3)c(F)cc2n1 [Compound 258]
HTT mRNA
  IC50: 100 to 1000 nM
  AC50: 100 to 1000 nM
[1]
  IC50: 1000 to 10000 nM

## Cn1cc2cc(-c3cc4ncn(C5CCNCC5)c(=O)c4s3)cc(C#N)c2n1 [Compound 259]
HTT mRNA
  IC50: 1000 to 10000 nM
  AC50: 1000 to 10000 nM
[1]
  IC50: 1000 to 10000 nM

## COc1cc(-c2cc3ncn(C4CCNCC4)c(=O)c3s2)cnn1 [Compound 260]
HTT mRNA
  IC50: 1000 to 10000 nM
  AC50: 1000 to 10000 nM
[1]
  IC50: 1000 to 10000 nM

## Cc1cn2cc(-c3cc4ncn(C5CCNCC5)c(=O)c4s3)cc(C)c2n1 [Compound 261]
HTT mRNA
  IC50: 100 to 1000 nM
  AC50: 1000 to 10000 nM
[1]
  IC50: 1000 to 10000 nM

## Cc1cn2nc(-c3cc4ncn(C5CCNCC5)c(=O)c4s3)cc2c(C)n1 [Compound 262]
HTT mRNA
  IC50: 100 to 1000 nM
  AC50: 100 to 1000 nM
[1]
  IC50: 100 to 1000 nM

## COc1cc(-c2cc3ncn(C4CCNCC4)c(=O)c3s2)ccn1 [Compound 263]
HTT mRNA
  IC50: 1000 to 10000 nM
  AC50: 1000 to 10000 nM
[1]
  IC50: 1000 to 10000 nM

## Cc1cn2cc(-c3cc4ncn(C5CCNCC5)c(=O)c4s3)ncc2n1 [Compound 264]
HTT mRNA
  IC50: 1000 to 10000 nM
  AC50: 1000 to 10000 nM
[1]
  IC50: 1000 to 10000 nM

## Cc1cn2cc(-c3cc4ncn(C5CCN(C)CC5)c(=O)c4s3)cc(F)c2n1 [Compound 265, 6-{8-fluoro-2-methylimidazo[1,2-a]pyridin-6-yl}-3-(1-methylpiperidin-4-yl)thieno[3,2-d]pyrimidin-4-one]
HTT mRNA
  IC50: 100 to 1000 nM
  AC50: 100 to 1000 nM
[1]
  IC50: 100 to 1000 nM

## Cc1cn2nc(-c3nc4sc(N5CCNCC5)nc4c(=O)[nH]3)cc2c(C)n1 [Compound 267]
HTT mRNA
  IC50: 100 to 1000 nM
  AC50: 100 to 1000 nM
[1]
  IC50: 100 to 1000 nM

## Cc1cn2nc(-c3nc4sc(N5CCN(C)CC5)nc4c(=O)[nH]3)cc2c(C)n1 [Compound 268]
HTT mRNA
  IC50: > 10000 nM
  AC50: > 10000 nM
[1]
  IC50: > 10000 nM

## Cc1cn2cc(-c3cc4ncn(N5CCNCC5)c(=O)c4s3)cc(F)c2n1 [Compound 269, 6-{8-fluoro-2-methylimidazo[1,2-a]pyridin-6-yl}-3-(piperazin-1-yl)thieno[3,2-d]pyrimidin-4-one]
HTT mRNA
  IC50: 100 to 1000 nM
  AC50: 100 to 1000 nM
[1]
  IC50: 100 to 1000 nM

## Cc1cn2cc(-c3cc4ncn(C5CCNC5)c(=O)c4s3)cc(F)c2n1 (stereo not drawn) [Compound 270, 6-{8-fluoro-2-methylimidazo[1,2-a]pyridin-6-yl}-3-(pyrrolidin-3-yl)thieno[3,2-d]pyrimidin-4-one]
HTT mRNA
  IC50: 100 to 1000 nM
  AC50: 100 to 1000 nM
[1]
  IC50: 100 to 1000 nM

## Cc1nc(-c2cc3ncn(C4CCNCC4)c(=O)c3s2)cc2cn(C)nc12 [Compound 271]
HTT mRNA
  IC50: 1000 to 10000 nM
  AC50: 1000 to 10000 nM
[1]
  IC50: 1000 to 10000 nM

## Cc1cn2cc(-c3cc4ncn(C5CCNCC5(F)F)c(=O)c4s3)cc(F)c2n1 (stereo not drawn) [Compound 274, 3-(3,3-difluoropiperidin-4-yl)-6-{8-fluoro-2-methylimidazo[1,2-a]pyridin-6-yl}thieno[3,2-d]pyrimidin-4-one]
HTT mRNA
  IC50: > 10000 nM
  AC50: 1000 to 10000 nM
[1]
  IC50: > 10000 nM

## Cc1cn2cc(-c3cc4ncn(C5CCCNCC5)c(=O)c4s3)cc(F)c2n1 (stereo not drawn) [Compound 275, 3-(azepan-4-yl)-6-{8-fluoro-2-methylimidazo[1,2-a]pyridin-6-yl}thieno[3,2-d]pyrimidin-4-one]
HTT mRNA
  IC50: 100 to 1000 nM
  AC50: 100 to 1000 nM
[1]
  IC50: 100 to 1000 nM

## Cc1cn2cc(-c3cc4ncn(C5=CCNCC5)c(=O)c4s3)cc(F)c2n1 [Compound 276, 6-{8-fluoro-2-methylimidazo[1,2-a]pyridin-6-yl}-3-(1,2,3,6-tetrahydropyridin-4-yl)thieno[3,2-d]pyrimidin-4-one]
HTT mRNA
  IC50: 100 to 1000 nM
  AC50: 100 to 1000 nM
[1]
  IC50: 100 to 1000 nM

## Cc1cn2cc(-c3cc4ncn(C5CNCCC5=O)c(=O)c4s3)cc(F)c2n1 (stereo not drawn) [Compound 279, 3-(6-{8-fluoro-2-methylimidazo[1,2-a]pyridin-6-yl}-4-oxothieno [3,2-d]pyrimidin-3-yl)piperidin-4-one]
HTT mRNA
  IC50: > 10000 nM
  AC50: > 10000 nM
[1]
  IC50: > 10000 nM

## Cc1cn2cc(N3CCc4cc(C5CCNCC5)sc4C3=O)cc(F)c2n1 [Compound 800, 6-[8-fluoro-2-methylimidazo[1,2-a]pyridin-6-yl]-2-(piperidin-4-yl)-4H,5H-thieno[2,3-c]pyridin-7-one]
HTT mRNA
  IC50: > 10000 nM
  AC50: > 10000 nM
[1]
  IC50: > 10000 nM

## Cc1cn2cc(-n3ccc4cc(C5CCNCC5)sc4c3=O)cc(F)c2n1 [Compound 801, 6-[8-fluoro-2-methylimidazo[1,2-a]pyridin-6-yl]-2-(piperidin-4-yl)thieno[2,3-c]pyridin-7-one]
HTT mRNA
  IC50: > 10000 nM
  AC50: > 10000 nM
[1]
  IC50: > 10000 nM

## Cc1cc(-c2cc3cnn(C4CCNCC4)c(=O)c3s2)cc2cn(C)nc12 [Compound 802, 2-(2,7-dimethyl-2H-indazol-5-yl)-6-(piperidin-4-yl)thieno[2,3-d]pyridazin-7(6H)-one]
HTT mRNA
  IC50: 100 to 1000 nM
  AC50: 100 to 1000 nM
[1]
  IC50: 100 to 1000 nM

## Cc1cn2cc(-c3cc4ccn(C5CCNCC5)c(=O)c4s3)cc(F)c2n1 [Compound 804, 2-(8-fluoro-2-methylimidazo[1,2-a]pyridin-6-yl)-6-(piperidin-4-yl)thieno[2,3-c]pyridin-7(6H)-one]
HTT mRNA
  IC50: 100 to 1000 nM
  AC50: 100 to 1000 nM
[1]
  IC50: 100 to 1000 nM

## Cc1cc(-c2cc3ccn(C4CCNCC4)c(=O)c3s2)cc2cn(C)nc12 [Compound 805, 2-(2,7-dimethyl-2H-indazol-5-yl)-6-(piperidin-4-yl)thieno[2,3-c]pyridin-7(6H)-one]
HTT mRNA
  IC50: 100 to 1000 nM
  AC50: 100 to 1000 nM
[1]
  IC50: 100 to 1000 nM

## Cc1cn2nc(-c3cc4ccn(C5CCNCC5)c(=O)c4s3)cc(C)c2n1 [Compound 806, 2-(2,8-dimethylimidazo[1,2-b]pyridazin-6-yl)-6-(piperidin-4-yl)thieno[2,3-c]pyridin-7(6H)-one]
HTT mRNA
  IC50: 100 to 1000 nM
  AC50: 100 to 1000 nM
[1]
  IC50: 100 to 1000 nM

## Cc1cn2cc(-c3cc4ccn(C5CCN(C)CC5)c(=O)c4s3)cc(F)c2n1 [Compound 808, 2-(8-fluoro-2-methylimidazo[1,2-a]pyridin-6-yl)-6-(1-methylpiperidin-4-yl)thieno[2,3-c]pyridin-7(6H)-one]
HTT mRNA
  IC50: 100 to 1000 nM
  AC50: 1000 to 10000 nM
[1]
  IC50: 1000 to 10000 nM

## Cc1cn2nc(-c3cc4ccn(C5CCN(C)CC5)c(=O)c4s3)cc(C)c2n1 [Compound 809]
HTT mRNA
  IC50: 1000 to 10000 nM
  AC50: 1000 to 10000 nM
[1]
  IC50: 1000 to 10000 nM

## Cc1cn2nc(-c3nc4cnn(C5CCNCC5)c(=O)c4s3)cc(C)c2n1 [Compound 810]
HTT mRNA
  IC50: 100 to 1000 nM
  AC50: 100 to 1000 nM
[1]
  IC50: 100 to 1000 nM

## Cc1nc(-c2nc3cnn(C4CCNCC4)c(=O)c3s2)cc2cn(C)nc12 [Compound 811]
HTT mRNA
  IC50: 1000 to 10000 nM
  AC50: 1000 to 10000 nM
[1]
  IC50: > 10000 nM
